Results from patent US11883372B2, “Pharmaceutical composition” (MEXICHEM FLUOR S.A. DE C.V., priority 2016, dated 2024).

Test: In vitro aerosolization performance of MDI formulations (Next Generation Impactor, HPLC)
Type: physicochemical
Settings: for FPFED (%) fine particle fraction of the emitted dose / Fine particle Dose (μg ± S.D.) / MMAD ± GSD / Emitted Dose (μg ± S.D.): NGI at 30 L.min^−1; for MMAD ± GSD: in µm (unit assumed); for Emitted Dose (μg ± S.D.): nominal dose salmeterol xinafoate 25 μg, fluticasone propionate 125 μg
Experimental: The nominal dose of salmeterol xinafoate was 25 μg and the nominal dose of fluticasone propionate was 125 μg.
A 100 mm×4.6 mm Ascentis Express […] column with a 2.7 μm particle size was used for the analysis.

[1] = combination MDI formulation in HFA-134a
[2] = combination MDI formulation in HFA-152a

fine particle fractions of the emitted doses upon aerosolization, HFA-152a compared with HFA-134a (HFA-152a used as the propellant, versus HFA-134a (Tables 2 and 3)): significantly better | FPFED (%) fine particle fraction of the emitted dose [1]: 31.0% | Fine particle Dose (μg ± S.D.) [1]: 31.6 ± 3.3 µg | MMAD ± GSD [1]: 3.8 ± 2.5 | Emitted Dose (μg ± S.D.) [1]: 101.7 ± 8.7 µg | FPFED (%) fine particle fraction of the emitted dose [2]: 40.0% | Fine particle Dose (μg ± S.D.) [2]: 43.5 ± 3.4 µg | MMAD ± GSD [2]: 2.9 ± 2.1 | Emitted Dose (μg ± S.D.) [2]: 108.7 ± 1.1 µg
SMILES: CCC(=O)O[C@]1(C(=O)SCF)[C@H](C)C[C@H]2[C@@H]3C[C@H](F)C4=CC(=O)C=C[C@]4(C)[C@@]3(F)[C@@H](O)C[C@@]21C [Fluticasone Propionate, fluticasone propionate]
